Source: patent US20230085307A1, “PYRIDAZINONE COMPOUND AND HERBICIDE” (NISSAN CHEMICAL CORPORATION, priority 2019, published 2023)

What was measured:
redroot pigweed [1] = assay: Test Example 4: herbicidal effect by soil treatment (Table 19, symbol N); assay type: in vivo, redroot pigweed (Amaranthus retroflexus); conditions: amount of applied herbicide 320 g/ha
Outline: (§1)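 Scoring uses the grading scale of an earlier test, three weeks post-application. Treatment consists of spraying a diluted emulsion formulation across the surface of sterilized diluvial soil in which seeds are buried near 1.5 cm deep; boxes are kept in a greenhouse between 25° C. and 30° C.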

barnyard grass [2] = assay: Test Example 4: herbicidal effect by soil treatment (Table 19, symbol H); assay type: in vivo, barnyard grass (Echinochloa crus-galli); conditions: amount of applied herbicide 320 g/ha
Outline: as §1

Japanese bulrush = assay: Test Example 2: herbicidal activity, application during weed generation under submerged conditions (Table 17, symbol B); assay type: in vivo, Japanese bulrush (Schoenoplectus juncoides); conditions: AAH 320 g/ha; application during weed generation, submerged conditions
Outline: (§2)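 Effect on each weed is rated three weeks post-treatment, using the same scoring criteria as the preceding test. Plants grow from mixed-sown seed in flooded alluvial soil (4 cm water) at 25° C. to 30° C., and are treated at one to two leaves with diluted emulsion dropped onto the water.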

barnyard grass [3] = assay: Test Example 3: herbicidal effect by foliage application, Wagner pot (Table 18, symbol H); assay type: in vivo, barnyard grass (Echinochloa crus-galli); conditions: amount of applied herbicide 320 g/ha
Outline: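 Plants were sown in alluvial soil held under 0.1–0.5 cm standing water and grown 14 days in a greenhouse at 25–30 °C. An emulsifiable formulation, water-diluted to the set dose, was then sprayed onto the foliage, and effects were scored three weeks later using previously defined criteria.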

chickweed = assay: Test Example 5: herbicidal effect by foliage application, plastic box (Table 20, symbol P); assay type: in vivo, common chickweed (Stellaria media); conditions: foliage application, AAH 320 g/ha, evaluated three weeks after application
Outline: (§3)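 Post-emergence foliar test in sterilized diluvial soil. Compound applied as water-diluted emulsion at a predetermined rate to 14-day-old plants; evaluation at three weeks.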

windgrass = assay: Test Example 5: herbicidal effect by foliage application, plastic box (Table 20, symbol L); assay type: in vivo, windgrass (Apera spica-venti); conditions: foliage application, AAH 320 g/ha, evaluated three weeks after application
Outline: as §3

lambsquarters = assay: Test Example 5: herbicidal effect by foliage application, plastic box (Table 20, symbol O); assay type: in vivo, lambsquarters (Chenopodium album); conditions: foliage application, AAH 320 g/ha, evaluated three weeks after application
Outline: as §3

southern crabgrass = assay: Test Example 5: herbicidal effect by foliage application, plastic box (Table 20, symbol F); assay type: in vivo, southern crabgrass (Digitaria ciliaris); conditions: foliage application, AAH 320 g/ha, evaluated three weeks after application
Outline: as §3

oval-leafed pondweed [4] = assay: Test Example 1: herbicidal activity, application before weed generation under submerged conditions (Table 16, symbol C); assay type: in vivo, oval-leafed pondweed (Monochoria vaginalis); conditions: 320 g/ha applied herbicide
Outline: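 Emulsion formulation, water-diluted to set dose, was put onto the flooded surface (4 cm depth, alluvial soil) the same day weeds were sown and 2.5-leaf rice transplanted. After 3 weeks at 25-30 °C under glass, each species was rated 0 (≤5% kill) to 5 (≥90% kill).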

blackgrass = assay: Test Example 4: herbicidal effect by soil treatment (Table 19, symbol J); assay type: in vivo, blackgrass (Alopecurus myosuroides); conditions: amount of applied herbicide 320 g/ha
Outline: as §1

persian speedwell [5] = assay: Test Example 5: herbicidal effect by foliage application, plastic box (Table 20, symbol R); assay type: in vivo, Persian speedwell (Veronica persica); conditions: foliage application, AAH 320 g/ha, evaluated three weeks after application
Outline: as §3

green foxtail = assay: Test Example 4: herbicidal effect by soil treatment (Table 19, symbol G); assay type: in vivo, green foxtail (Setaria viridis); conditions: amount of applied herbicide 320 g/ha
Outline: as §1

velvetleaf = assay: Test Example 4: herbicidal effect by soil treatment (Table 19, symbol M); assay type: in vivo, velvetleaf (Abutilon theophrasti); conditions: amount of applied herbicide 320 g/ha
Outline: as §1

oval-leafed pondweed [6] = assay: Test Example 2: herbicidal activity, application during weed generation under submerged conditions (Table 17, symbol C); assay type: in vivo, oval-leafed pondweed (Monochoria vaginalis); conditions: AAH 320 g/ha; application during weed generation, submerged conditions
Outline: as §2

redroot pigweed [7] = assay: Test Example 5: herbicidal effect by foliage application, plastic box (Table 20, symbol N); assay type: in vivo, redroot pigweed (Amaranthus retroflexus); conditions: foliage application, AAH 320 g/ha, evaluated three weeks after application
Outline: as §3

persian speedwell [8] = assay: Test Example 4: herbicidal effect by soil treatment (Table 19, symbol R); assay type: in vivo, Persian speedwell (Veronica persica); conditions: amount of applied herbicide 320 g/ha
Outline: as §1

SMILES | herbicidal effect on N: redroot pigweed (redroot pigweed [1]) | herbicidal effect on H: barnyard grass (barnyard grass [2]) | herbicidal effect rating, B: Japanese bulrush (Japanese bulrush) | herbicidal effect on H: barnyard grass (barnyard grass [3]) | P: chickweed, herbicidal effect (criteria 0-5) (chickweed) | L: windgrass, herbicidal effect (criteria 0-5) (windgrass) | O: lambsquarters, herbicidal effect (criteria 0-5) (lambsquarters) | F: southern crabgrass, herbicidal effect (criteria 0-5) (southern crabgrass) | Herbicidal effect on C: oval-leafed pondweed (grade 0-5) (oval-leafed pondweed [4]) | herbicidal effect on J: blackgrass (blackgrass) | R: persian speedwell, herbicidal effect (criteria 0-5) (persian speedwell [5]) | herbicidal effect on G: green foxtail (green foxtail) | herbicidal effect on M: velvetleaf (velvetleaf) | herbicidal effect rating, C: oval-leafed pondweed (oval-leafed pondweed [6]) | N: redroot pigweed, herbicidal effect (criteria 0-5) (redroot pigweed [7]) | herbicidal effect on R: persian speedwell (persian speedwell [8])
Cc1nn(C)c(=O)c(-c2c(-c3ccc(OC(F)F)cc3)sc3ccc(F)cc23)c1OC(=O)OCCCl [2-293] | 5 (Herbicidal rate of 90% or more (almost completely withered)) | 5 (Herbicidal rate of 90% or more (almost completely withered)) | 3 (Herbicidal rate of 40% or more and less than 70%) | 5 (Herbicidal rate of 90% or more (almost completely withered)) | 5 (Herbicidal rate of 90% or more (almost completely withered)) | 4 (Herbicidal rate of 70% or more and less than 90%) | 5 (Herbicidal rate of 90% or more (almost completely withered)) | 5 (Herbicidal rate of 90% or more (almost completely withered)) | 4 (Herbicidal rate of 70% or more and less than 90%) | 5 (Herbicidal rate of 90% or more (almost completely withered)) | 5 (Herbicidal rate of 90% or more (almost completely withered)) | 5 (Herbicidal rate of 90% or more (almost completely withered)) | 5 (Herbicidal rate of 90% or more (almost completely withered)) | 4 (Herbicidal rate of 70% or more and less than 90%) | 5 (Herbicidal rate of 90% or more (almost completely withered)) | 5 (Herbicidal rate of 90% or more (almost completely withered))
Cc1nn(C)c(=O)c(-c2c(-c3ccc(OC(F)F)cc3)sc3ccc(F)cc23)c1OC(=S)Sc1ccccc1 [2-298] | 3 (Herbicidal rate of 40% or more and less than 70%) | 0 (Herbicidal rate of 5% or less (almost no effect)) | 3 (Herbicidal rate of 40% or more and less than 70%) | 5 (Herbicidal rate of 90% or more (almost completely withered)) | 5 (Herbicidal rate of 90% or more (almost completely withered)) | 0 (Herbicidal rate of 5% or less (almost no effect)) | 5 (Herbicidal rate of 90% or more (almost completely withered)) | 3 (Herbicidal rate of 40% or more and less than 70%) | 3 (Herbicidal rate of 40% or more and less than 70%) | 0 (Herbicidal rate of 5% or less (almost no effect)) | 5 (Herbicidal rate of 90% or more (almost completely withered)) | 0 (Herbicidal rate of 5% or less (almost no effect)) | 2 (Herbicidal rate of 20% or more and less than 40%) | 0 (Herbicidal rate of 5% or less (almost no effect)) | 5 (Herbicidal rate of 90% or more (almost completely withered)) | 1 (Herbicidal rate of 5% or more and less than 20%)
Cc1nn(C)c(=O)c(-c2c(-c3ccc(OC(F)F)cc3)sc3ccc(F)cc23)c1OCC(=O)c1ccccc1 [2-305] | 4 (Herbicidal rate of 70% or more and less than 90%) | 0 (Herbicidal rate of 5% or less (almost no effect)) | 3 (Herbicidal rate of 40% or more and less than 70%) | 5 (Herbicidal rate of 90% or more (almost completely withered)) | 5 (Herbicidal rate of 90% or more (almost completely withered)) | 1 (Herbicidal rate of 5% or more and less than 20%) | 5 (Herbicidal rate of 90% or more (almost completely withered)) | 1 (Herbicidal rate of 5% or more and less than 20%) | 2 (Herbicidal rate of 20% or more and less than 40%) | 0 (Herbicidal rate of 5% or less (almost no effect)) | 5 (Herbicidal rate of 90% or more (almost completely withered)) | 0 (Herbicidal rate of 5% or less (almost no effect)) | 1 (Herbicidal rate of 5% or more and less than 20%) | 0 (Herbicidal rate of 5% or less (almost no effect)) | 5 (Herbicidal rate of 90% or more (almost completely withered)) | 3 (Herbicidal rate of 40% or more and less than 70%)
CC(=O)c1ccc(-c2sc3ccc(F)cc3c2-c2c(O)c(C)nn(C)c2=O)cc1 [2-339] | 4 (Herbicidal rate of 70% or more and less than 90%) | 0 (Herbicidal rate of 5% or less (almost no effect)) | 3 (Herbicidal rate of 40% or more and less than 70%) | 5 (Herbicidal rate of 90% or more (almost completely withered)) | 5 (Herbicidal rate of 90% or more (almost completely withered)) | 5 (Herbicidal rate of 90% or more (almost completely withered)) | 4 (Herbicidal rate of 70% or more and less than 90%) | 3 (Herbicidal rate of 40% or more and less than 70%) | 5 (Herbicidal rate of 90% or more (almost completely withered)) | 2 (Herbicidal rate of 20% or more and less than 40%) | 5 (Herbicidal rate of 90% or more (almost completely withered)) | 0 (Herbicidal rate of 5% or less (almost no effect)) | 5 (Herbicidal rate of 90% or more (almost completely withered)) | 3 (Herbicidal rate of 40% or more and less than 70%) | 5 (Herbicidal rate of 90% or more (almost completely withered)) | 4 (Herbicidal rate of 70% or more and less than 90%)
Cc1nn(C)c(=O)c(-c2c(-c3ccc([N+](=O)[O-])cc3)sc3ccc(F)cc23)c1O [2-341] | 5 (Herbicidal rate of 90% or more (almost completely withered)) | 3 (Herbicidal rate of 40% or more and less than 70%) | 3 (Herbicidal rate of 40% or more and less than 70%) | 4 (Herbicidal rate of 70% or more and less than 90%) | 5 (Herbicidal rate of 90% or more (almost completely withered)) | 4 (Herbicidal rate of 70% or more and less than 90%) | 5 (Herbicidal rate of 90% or more (almost completely withered)) | 5 (Herbicidal rate of 90% or more (almost completely withered)) | 5 (Herbicidal rate of 90% or more (almost completely withered)) | 0 (Herbicidal rate of 5% or less (almost no effect)) | 5 (Herbicidal rate of 90% or more (almost completely withered)) | 4 (Herbicidal rate of 70% or more and less than 90%) | 3 (Herbicidal rate of 40% or more and less than 70%) | 3 (Herbicidal rate of 40% or more and less than 70%) | 5 (Herbicidal rate of 90% or more (almost completely withered)) | 5 (Herbicidal rate of 90% or more (almost completely withered))
